Square brackets hold non-standard residues; d marks the D form. Peptide text beside a SMILES is read from it. PEG24 = NCCOCCOCCOCCOCCOCCOCCOCCOCCOCCOCCOCCOCCOCCOCCOCCOCCOCCOCCOCCOCCOCCOCCOCCOCCC(=O)O; Sar = CNCC(=O)O
Test: Solubility in water
Type: physicochemical
Conditions: Table 7, PEGylated and Sar/Ala substitution peptides

SMILES	Solubility in water
CC[C@H](C)[C@H](N)C(=O)N[C@@H](C)C(=O)N[C@@H](CC(C)C)C(=O)N[C@H](C(=O)N[C@@H](CC(C)C)C(=O)N[C@@H](C)C(=O)N1CCC[C@H]1C(=O)N[C@H](C(=O)N[C@@H](CS)C(=O)N[C@@H](CS)C(=O)N[C@@H](CCC(N)=O)C(=O)N[C@@H](C)C(=O)N[C@@H](CCCNC(=N)N)C(=O)N[C@@H](C)C(=O)N[C@@H](C)C(=O)NCCOCCOCCOCCOCCOCCOCCOCCOCCOCCOCCOCCOCCOCCOCCOCCOCCOCCOCCOCCOCCOCCOCCOCCOCCC(=O)O)[C@@H](C)CC)[C@@H](C)CC [E6AE12A-dPEG24] (H-IALILAPICCQARAA[PEG24]-OH)	Yes
CC[C@H](C)[C@H](N)C(=O)N[C@@H](C)C(=O)N[C@@H](CC(C)C)C(=O)N[C@H](C(=O)N[C@@H](CC(C)C)C(=O)N[C@@H](CCC(=O)O)C(=O)N1CCC[C@H]1C(=O)N[C@H](C(=O)N[C@@H](CS)C(=O)N[C@@H](CS)C(=O)N[C@@H](CCC(N)=O)C(=O)N[C@@H](CCC(=O)O)C(=O)N[C@@H](CCCNC(=N)N)C(=O)N(C)CC(=O)N[C@@H](C)C(=O)NCCOCCOCCOCCOCCOCCOCCOCCOCCOCCOCCOCCOCCOCCOCCOCCOCCOCCOCCOCCOCCOCCOCCOCCOCCC(=O)O)[C@@H](C)CC)[C@@H](C)CC [PA-A14Sar-dPEG24]	Yes
CC[C@H](C)[C@H](N)C(=O)N[C@@H](C)C(=O)N[C@@H](CC(C)C)C(=O)N[C@H](C(=O)N[C@@H](CC(C)C)C(=O)N[C@@H](CCC(=O)O)C(=O)N1CCC[C@H]1C(=O)N[C@H](C(=O)N(C)CC(=O)N[C@@H](C)C(=O)N[C@@H](CCC(N)=O)C(=O)N[C@@H](CCC(=O)O)C(=O)N[C@@H](CCCNC(=N)N)C(=O)N[C@@H](C)C(=O)N[C@@H](C)C(=O)O)[C@@H](C)CC)[C@@H](C)CC [PA-C9SarC10A] (H-IALILEPI[Sar]AQERAA-OH)	Yes
CC[C@H](C)[C@H](N)C(=O)N[C@@H](C)C(=O)N[C@@H](CC(C)C)C(=O)N[C@H](C(=O)N[C@@H](CC(C)C)C(=O)N[C@@H](CCC(=O)O)C(=O)N1CCC[C@H]1C(=O)N[C@H](C(=O)N(C)CC(=O)N[C@@H](CCC(N)=O)C(=O)N[C@@H](CCC(=O)O)C(=O)N[C@@H](CCCNC(=N)N)C(=O)N[C@@H](C)C(=O)N[C@@H](C)C(=O)O)[C@@H](C)CC)[C@@H](C)CC [PA-C9SarD10] (H-IALILEPI[Sar]QERAA-OH)	Yes
CC[C@H](C)[C@H](N)C(=O)N[C@@H](C)C(=O)N[C@@H](CC(C)C)C(=O)N[C@H](C(=O)N[C@@H](CC(C)C)C(=O)N(C)CC(=O)N1CCC[C@H]1C(=O)N[C@H](C(=O)N[C@@H](CS)C(=O)N[C@@H](CS)C(=O)N[C@@H](CCC(N)=O)C(=O)N[C@@H](CCC(=O)O)C(=O)N[C@@H](CCCNC(=N)N)C(=O)N[C@@H](C)C(=O)N[C@@H](C)C(=O)NCCOCCOCCOCCOCCOCCOCCOCCOCCOCCOCCOCCOCCOCCOCCOCCOCCOCCOCCOCCOCCOCCOCCOCCOCCC(=O)O)[C@@H](C)CC)[C@@H](C)CC [PA-E6Sar-dPEG24]	Yes
CC[C@H](C)[C@H](N)C(=O)N[C@@H](C)C(=O)N[C@@H](CC(C)C)C(=O)N[C@H](C(=O)N[C@@H](CC(C)C)C(=O)N[C@@H](CCC(=O)O)C(=O)N(C)CC(=O)N[C@H](C(=O)N(C)CC(=O)N[C@@H](CS)C(=O)N[C@@H](CCC(N)=O)C(=O)N[C@@H](CCC(=O)O)C(=O)N[C@@H](CCCNC(=N)N)C(=O)N[C@@H](C)C(=O)N[C@@H](C)C(=O)O)[C@@H](C)CC)[C@@H](C)CC [PA-P7SarC9Sar, IALILE(Sar)I(Sar)CQERAA] (H-IALILE[Sar]I[Sar]CQERAA-OH)	Yes
CC[C@H](C)[C@H](N)C(=O)N[C@@H](C)C(=O)N[C@@H](CC(C)C)C(=O)N[C@H](C(=O)N[C@@H](CC(C)C)C(=O)N[C@@H](CCC(=O)O)C(=O)N1CCC[C@H]1C(=O)N[C@H](C(=O)N[C@@H](CS)C(=O)N[C@@H](CS)C(=O)N(C)CC(=O)N[C@@H](CCC(=O)O)C(=O)N[C@@H](CCCNC(=N)N)C(=O)N[C@@H](C)C(=O)N[C@@H](C)C(=O)NCCOCCOCCOCCOCCOCCOCCOCCOCCOCCOCCOCCOCCOCCOCCOCCOCCOCCOCCOCCOCCOCCOCCOCCOCCC(=O)O)[C@@H](C)CC)[C@@H](C)CC [PA-Q11Sar-dPEG24]	Yes
CC[C@H](C)[C@H](N)C(=O)N[C@@H](C)C(=O)N[C@@H](CC(C)C)C(=O)N[C@H](C(=O)N[C@@H](CC(C)C)C(=O)N[C@@H](CCC(=O)O)C(=O)N1CCC[C@H]1C(=O)N[C@H](C(=O)N[C@@H](CS)C(=O)N[C@@H](CS)C(=O)N[C@@H](CCC(N)=O)C(=O)N[C@@H](CCC(=O)O)C(=O)N(C)CC(=O)N[C@@H](C)C(=O)N[C@@H](C)C(=O)NCCOCCOCCOCCOCCOCCOCCOCCOCCOCCOCCOCCOCCOCCOCCOCCOCCOCCOCCOCCOCCOCCOCCOCCOCCC(=O)O)[C@@H](C)CC)[C@@H](C)CC [PA-R13Sar-dPEG24]	Yes
CC[C@H](C)[C@H](N)C(=O)N[C@@H](C)C(=O)N[C@@H](CC(C)C)C(=O)N[C@H](C(=O)N[C@@H](CC(C)C)C(=O)N[C@@H](CCC(=O)O)C(=O)N1CCC[C@H]1C(=O)N[C@H](C(=O)N(C)CC(=O)N[C@@H](CS)C(=O)N[C@@H](CCC(N)=O)C(=O)N[C@@H](CCC(=O)O)C(=O)N[C@@H](CCCNC(=N)N)C(=O)N(C)CC(=O)N[C@@H](C)C(=O)O)[C@@H](C)CC)[C@@H](C)CC [Peptide A14SarC9Sar] (H-IALILEPI[Sar]CQER[Sar]A-OH)	No
CC[C@H](C)[C@H](N)C(=O)N[C@@H](C)C(=O)N[C@@H](CC(C)C)C(=O)N[C@H](C(=O)N[C@@H](CC(C)C)C(=O)N[C@@H](CCC(=O)O)C(=O)N(C)CC(=O)N[C@H](C(=O)N[C@@H](CS)C(=O)N[C@@H](CS)C(=O)N[C@@H](CCC(N)=O)C(=O)N[C@@H](CCC(=O)O)C(=O)N[C@@H](CCCNC(=N)N)C(=O)N(C)CC(=O)N[C@@H](C)C(=O)O)[C@@H](C)CC)[C@@H](C)CC [Peptide A14SarP7Sar, IALILE(Sar)ICCQER(Sar)A] (H-IALILE[Sar]ICCQER[Sar]A-OH; N-terminus and C-terminus assumed)	Yes
CC[C@H](C)[C@H](N)C(=O)N[C@@H](C)C(=O)N[C@@H](CC(C)C)C(=O)N[C@H](C(=O)N[C@@H](CC(C)C)C(=O)N[C@@H](C)C(=O)N1CCC[C@H]1C(=O)N[C@H](C(=O)N(C)CC(=O)N[C@@H](CS)C(=O)N[C@@H](CCC(N)=O)C(=O)N[C@@H](C)C(=O)N[C@@H](CCCNC(=N)N)C(=O)N[C@@H](C)C(=O)N[C@@H](C)C(=O)O)[C@@H](C)CC)[C@@H](C)CC [Peptide E6AE12AC9Sar] (H-IALILAPI[Sar]CQARAA-OH)	No
CC[C@H](C)[C@H](N)C(=O)N[C@@H](C)C(=O)N[C@@H](CC(C)C)C(=O)N[C@H](C(=O)N[C@@H](CC(C)C)C(=O)N[C@@H](C)C(=O)N(C)CC(=O)N[C@H](C(=O)N[C@@H](CS)C(=O)N[C@@H](CS)C(=O)N[C@@H](CCC(N)=O)C(=O)N[C@@H](C)C(=O)N[C@@H](CCCNC(=N)N)C(=O)N[C@@H](C)C(=O)N[C@@H](C)C(=O)O)[C@@H](C)CC)[C@@H](C)CC [Peptide E6AE12AP7Sar] (H-IALILA[Sar]ICCQARAA-OH; N-terminus and C-terminus assumed)	Yes
CC[C@H](C)[C@H](N)C(=O)N[C@@H](C)C(=O)N[C@@H](CC(C)C)C(=O)N[C@H](C(=O)N[C@@H](CC(C)C)C(=O)N(C)CC(=O)N1CCC[C@H]1C(=O)N[C@H](C(=O)N(C)CC(=O)N[C@@H](CS)C(=O)N[C@@H](CCC(N)=O)C(=O)N[C@@H](CCC(=O)O)C(=O)N[C@@H](CCCNC(=N)N)C(=O)N[C@@H](C)C(=O)N[C@@H](C)C(=O)O)[C@@H](C)CC)[C@@H](C)CC [Peptide E6SarC9Sar, IALIL(Sar)PI(Sar)CQERAA] (H-IALIL[Sar]PI[Sar]CQERAA-OH)	Yes
CC[C@H](C)[C@H](N)C(=O)N[C@@H](C)C(=O)N[C@@H](CC(C)C)C(=O)N[C@H](C(=O)N[C@@H](CC(C)C)C(=O)N(C)CC(=O)N(C)CC(=O)N[C@H](C(=O)N[C@@H](CS)C(=O)N[C@@H](CS)C(=O)N[C@@H](CCC(N)=O)C(=O)N[C@@H](CCC(=O)O)C(=O)N[C@@H](CCCNC(=N)N)C(=O)N[C@@H](C)C(=O)N[C@@H](C)C(=O)O)[C@@H](C)CC)[C@@H](C)CC [Peptide E6SarP7Sar] (H-IALIL[Sar][Sar]ICCQERAA-OH; N-terminus and C-terminus assumed)	Yes
CC[C@H](C)[C@H](N)C(=O)N[C@@H](C)C(=O)N[C@@H](CC(C)C)C(=O)N[C@H](C(=O)N[C@@H](CC(C)C)C(=O)N[C@@H](CCC(=O)O)C(=O)N1CCC[C@H]1C(=O)N[C@H](C(=O)N(C)CC(=O)N[C@@H](CS)C(=O)N(C)CC(=O)N[C@@H](CCC(=O)O)C(=O)N[C@@H](CCCNC(=N)N)C(=O)N[C@@H](C)C(=O)N[C@@H](C)C(=O)O)[C@@H](C)CC)[C@@H](C)CC [Peptide Q11SarC9Sar] (H-IALILEPI[Sar]C[Sar]ERAA-OH)	Yes
CC[C@H](C)[C@H](N)C(=O)N[C@@H](C)C(=O)N[C@@H](CC(C)C)C(=O)N[C@H](C(=O)N[C@@H](CC(C)C)C(=O)N[C@@H](CCC(=O)O)C(=O)N(C)CC(=O)N[C@H](C(=O)N[C@@H](CS)C(=O)N[C@@H](CS)C(=O)N(C)CC(=O)N[C@@H](CCC(=O)O)C(=O)N[C@@H](CCCNC(=N)N)C(=O)N[C@@H](C)C(=O)N[C@@H](C)C(=O)O)[C@@H](C)CC)[C@@H](C)CC [Peptide Q11SarP7Sar, IALILE(Sar)ICC(Sar)ERAA] (H-IALILE[Sar]ICC[Sar]ERAA-OH; N-terminus and C-terminus assumed)	Yes
CC[C@H](C)[C@H](N)C(=O)N[C@@H](C)C(=O)N[C@@H](CC(C)C)C(=O)N[C@H](C(=O)N[C@@H](CC(C)C)C(=O)N[C@@H](CCC(=O)O)C(=O)N1CCC[C@H]1C(=O)N[C@H](C(=O)N(C)CC(=O)N[C@@H](CS)C(=O)N[C@@H](CCC(N)=O)C(=O)N[C@@H](CCC(=O)O)C(=O)N(C)CC(=O)N[C@@H](C)C(=O)N[C@@H](C)C(=O)O)[C@@H](C)CC)[C@@H](C)CC [Peptide R13SarC9Sar] (H-IALILEPI[Sar]CQE[Sar]AA-OH)	No

Reference: US12297235B2, “Synthetic peptide compounds and methods of use” (REALTA HOLDINGS, LLC, priority 2015, dated 2025)
